Key:
CDK4/6 in MM.1R cells = test: CDK4/6 level by western blot; assay type: cell-based, human; details: 24 h, p < .0005
Description: (§1) To test the inhibitory effect on proteasome activity, ubiquitin, cyclins, CDK, NF-kB and pNF-kB were assessed by western blot. […] After 24 h, cells were collected and protein extracted for analysis. Protein extraction and western blot analysis were performed as previously described.
(§2) Briefly, a total of 15 µg of proteins were loaded in each lane and specific antibodies were used to detect ubiquitin (Abcam, Cambridge, UK), cyclin A, cyclin B, cyclin D1, CDK1, CDK4/6, NF-kB, pNF-kB, PARP, and Caspase-3 (Cell Signaling, Danvers, MA, United States). Beta actin (Cell Signaling), was used on stripped blots as loading control. The images have been acquired using a dedicated software and densitometric data were expressed as integrated intensity and reported as means and SEM.

[1] = molecular target: T1, Human 20S immunoproteasome β2i (Homo sapiens, UniProt P40306); test: 20S immunoproteasome inhibition, β2i trypsin-like activity (Boc-Leu-Arg-Arg-AMC); assay type: biochemical; details: 100 µM inhibitor, preliminary screening
T1 construct: Human 20S immunoproteasome, isolated from human spleen; purchased Enzo Life Science; host or cells: human spleen (tissue-isolated)
Description: Human 20S immunoproteasome, isolated from human spleen, was purchased from Enzo Life Science Supplier. The three distinct proteolytic activities of the 20S immunoproteasome were measured by monitoring the hydrolysis of the peptidyl 7-amino-4-methyl coumarin substrates Suc-Leu-Leu-Val-Tyr-AMC (Bachem), Boc-Leu-Arg-Arg-AMC (Bachem) and Ac-Pro-Ala-Leu-AMC (Biomol GmbH) for β5i, β2i and β1i activities of immunoproteasome, respectively. […] Inhibitor solutions were prepared from stocks in DMSO. Each independent assay was performed twice in duplicate in 96-well-plates in a total volume of 200 µL. Fluorescence of the product AMC of the substrate hydrolyses was measured using an Infinite 200 PRO microplate reader (Tecan, Männedorf, Switzerland) at 30 °C with a 380 nm excitation filter and a 460 nm emission filter.
Human 20S immunoproteasome was incubated at 30 °C at a final concentration of 0.004 mg/mL with test compound present at variable concentrations. The reaction buffer consisted of 50 mM Tris HCl, pH 7.4, 50 mM NaCl, 0.5 mM EDTA III, 0.03% SDS. Product release from substrate hydrolysis (50 µM) was monitored continuously over a period of 10 min.

NF-kB in MM.1R cells = test: NF-kB level by western blot; assay type: cell-based, human; details: 24 h
Description: as §1, §2

MM.1R cells = test: Cytotoxicity by MTT assay; assay type: cell-based; details: Homo sapiens, 24 h, dexamethasone-resistant cells, read-out: EC50 against MM.1R cells
Description: To test the efficacy of 5 and 6 a cell viability assay was performed. Human multiple myeloma cells (MM.1R; ATCC® CRL-2975™) resistant to dexamethasone were purchased by LGC Standards (Milan, Italy) and cultured under standard conditions (37 °C, 5% CO2) with standard RPMI 1640 medium added with L-glutamine, 10% foetal bovine serum, and 1% antibiotic mixture (penicillin/streptomycin) in sterile flasks. Cells were grown for a week before the assay. Compounds 5–6 were tested at different doses (1–10-20–40-80–100 µM) in a 96 well plate for 24 h to determine the cytotoxic effect. […] At the end of the 5 h, the medium was removed and the insoluble formazan crystals were dissolved with 200 µl/well of dimethyl sulphoxide (DMSO), and the absorbance was read at 540 and 620 nm. The difference between the two absorbance values was used to calculate mean for each replicate and further assess cytotoxicity. […] Results were expressed as % of vitality and reported as means and SEM.
To test the efficacy of compounds 5–6 in a cell system, we used dexamethasone-resistant human multiple myeloma cells (MM.1R), which are less responsive to chemotherapy, and are representative of patients in the later stages of the disease, as previously described. […] MM.1R cell survival was determined by the tetrazolium dye MTT assay and untreated cells were used as reference and assumed as the 100% of vital cells (Figure 2).

PARP in MM.1R cells = test: PARP expression by western blot; assay type: cell-based, human; details: 24 h
Description: as §1, §2

[2] = molecular target: β5c subunit of constitutive proteasome; design: method as in PMID 24561716, PMID 24946214; details: ChT-L activity of constitutive proteasome; read-out: Ki against β5c subunit; cited from earlier work
cyclin B in MM.1R cells = test: Cyclin B level by western blot; assay type: cell-based, human; details: 24 h, 20 µM
Description: as §1, §2

ubiquitin in MM.1R cells = test: Ubiquitin accumulation by western blot; assay type: cell-based, human; details: 24 h, versus ctrl
Description: as §1, §2
To test the efficacy of these compounds in inhibiting ubiquitinated protein degradation, a western blot analysis of ubiquitin was performed (Figure 3). In fact, considering that proteasome inhibition leads the cells to accumulate ubiquitinated protein into the cytoplasm, we decided to assess the changes in levels of total ubiquitinated proteins indirectly, by detecting changes in total ubiquitin levels, by western blot analysis. […] It is worth noting that these changes were dose-dependent, this adding an additional level of confidence in our experimental approach.

cyclin D1 in MM.1R cells = test: Cyclin D1 level by western blot; assay type: cell-based, human; details: 24 h, 20 µM
Description: as §1, §2

pNF-kB in MM.1R cells = test: pNF-kB level by western blot; assay type: cell-based, human; details: 24 h
Description: as §1, §2

[3] = molecular target: Human 20S immunoproteasome β5i (Homo sapiens, UniProt P28062); test: 20S immunoproteasome inhibition, β5i chymotrypsin-like activity (Suc-Leu-Leu-Val-Tyr-AMC); details: for inhibition at 100 µM: read-out: inhibition of one or two ChT-L activities
Description: (§3) Human 20S immunoproteasome was incubated at 30 °C at a final concentration of 0.004 mg/mL with test compound present at variable concentrations. The reaction buffer consisted of 50 mM Tris HCl, pH 7.4, 10 mM NaCl, 25 mM KCl, 1 mM MgCl2, 0.03% SDS. Product release from substrate hydrolysis (50 µM) was monitored continuously over a period of 10 min.

[4] = molecular target: Human 20S immunoproteasome β1i (Homo sapiens, UniProt P28065); test: 20S immunoproteasome inhibition, β1i chymotrypsin-like activity (Ac-Pro-Ala-Leu-AMC)
Description: as §3

CDK1 in MM.1R cells = test: CDK1 level by western blot; assay type: cell-based, human; details: 24 h, p < .05
Description: as §1, §2

cyclin A in MM.1R cells = test: Cyclin A level by western blot; assay type: cell-based, human; details: 24 h, 15 and 20 µM
Description: as §1, §2

Caspase-3 in MM.1R cells = test: Caspase-3 expression by western blot; assay type: cell-based, human; details: 24 h
Description: as §1, §2

inhibition at 100 µM [1] | Ki [3] | inhibition at 100 µM [3] | Ki [4] | inhibition at 100 µM ([4]; read-out: % of inhibition at 100 µM β1i) | SMILES | CDK4/6 level (CDK4/6 in MM.1R cells) | NF-kB level (NF-kB in MM.1R cells) | EC50 (MM.1R cells) | PARP expression (PARP in MM.1R cells) | Ki [2] | cyclin B level (cyclin B in MM.1R cells) | ubiquitin accumulation (ubiquitin in MM.1R cells; 20 µM) | cyclin D1 level (cyclin D1 in MM.1R cells) | pNF-kB level (pNF-kB in MM.1R cells) | CDK-1 level (CDK1 in MM.1R cells) | cyclin A level (cyclin A in MM.1R cells) | Caspase-3 expression (Caspase-3 in MM.1R cells) | ubiquitin accumulation (ubiquitin in MM.1R cells; all tested concentrations)
24% | 4.39 ± 0.18 µM | > 70% | 4.9 ± 0.04 µM | – | CC(C)CCNC(=O)Cn1ccc2ccc(Br)cc2c1=O [Compound 6] | changed | dose-dependent increase | 17.8 µM | No significant difference | 2340 nM | consistent reduction | significant increase | consistent reduction | trend of reduction | changed | very significant (p < .005) reduction | No significant difference | –
– | – | – | – | – | CC(C)CCNC(=O)Cn1ccc2c(c1=O)CCCN2 [Compound 3] | – | – | – | – | 10500 nM | – | – | – | – | – | – | – | –
– | 4.39 µM | – | 4.9 µM | – | CC(C)CCNC(=O)Cn1ccc2ncccc2c1=O [Compound 1] | – | – | – | – | – | – | – | – | – | – | – | – | –
19% | 6.04 ± 0.29 µM | > 70% | – | 36% | CC(C)CCNC(=O)Cn1cc(Br)c2ncccc2c1=O [Compound 5] | – | – | 21.2 µM | No significant difference | 560 nM | – | – | able to reduce | paradoxical increase | – | No trend of reduction | No significant difference | no significant increase

Reference: article PMC6691773, “Non-covalent immunoproteasome inhibitors induce cell cycle arrest in multiple myeloma MM.1R cells” (Journal of Enzyme Inhibition and Medicinal Chemistry, 2019)
